Data: US4596875A, “Preparation of amides of 4-hydroxy-3-quinoline-carboxylic acid” (Roussel Uclaf, priority 1982, dated 1986)

How the values were obtained:
[1] = Anti-inflammatory activity: edema test provoked by carraghenin; format: in vivo; conditions: Rattus norvegicus; male rats 130 to 150 g, oral, simultaneous with 0.05 ml of 1% carraghenin in rear paw; paw volume at 2,4,6,8 and 24 hours; read-out: DA50 (dose which reduced the edema by 50%)
Protocol: The anti-inflammatory activity was determined by the edema test provoked by carraghenin in male rats weighing about 130 to 150 g which received 0.05 ml of sterile suspension of 1% carraghenin into the tibiotarsien articulation of the rear paw. Simultaneously the test product in a suspension of 0.25% carboxymethyl cellulose and 0.02% of Tween was orally administered. The volume of the paw was measured before the test and then 2,4,6,8 and 24 hours later. The intensity of inflammation was maximum at 4 to 6 hours after the injection of carraghenin and the differences in paw volume of controls and treated animals were evidence of anti-inflammatory action. The DA50 dose which is that which reduced the edema by 50% was 15 and 12 mg/kg for the products of Examples 2 and 10 respectively.

[2] = Analgesic activity: acetic acid-provoked stretching test based on Koster et al; format: in vivo; conditions: Mus musculus; mice, oral, 30 minutes before intraperitoneal acetic acid (1% solution, 0.01 ml/g); fasted 24 hours; 15 minute observation; read-out: DA50 (dose which diminished the number of stretchings by 50% as compared to the controls)
Protocol: The test was based on that of Koster et al [Fed. Proc., Vol. 1B (1959), p. 412] in which mice received an intraperitoneal injection of acetic acid to provoke repeated stretching and twisting movements which persist for more than 6 hours. An analgesic prevents or reduces this syndrome which is considered to be an exteriorization of a diffuse abdominal pain. A 1% solution of acetic acid in water was used and the dose […] the syndrome under these conditions was 0.01 ml/g or 100 mg/kg of acetic acid.
The test compound was orally administered to the mice 30 minutes before the acetic acid injection and the mice had been fasting for the previous 24 hours. The stretchings were counted for each mouse for a 15 minute observation period after the acetic acid injection and the dose which diminished the number of stretchings by 50% as compared to the controls (DA50) was 1.2 and 0.3 mg/kg for the compounds of Example 2 and 10 respectively.

| Compound | ED50 [1] | ED50 [2] |
| --- | --- | --- |
| CC(O)c1nc2c(C(F)(F)F)cccc2c(O)c1C(=O)Nc1nccs1 (stereo not shown) [Example 2, 4-hydroxy-2-(1-hydroxyethyl)-N-(2-thiazolyl)-8-trifluoromethyl-3-quinoline-carboxamide] | 15 mg/kg | 1.2 mg/kg |
| CCC(O)c1nc2c(C(F)(F)F)cccc2c(O)c1C(=O)Nc1nccs1 (stereo not shown) [Example 10, 4-hydroxy-2-(1-hydroxy-propyl)-N-(2-thiazolyl)-8-trifluoromethyl-3-quinoline-carboxamide] | 12 mg/kg | 0.3 mg/kg |
